How the values were obtained:
[1] = test system: CD34+ cells; test: NK cell expansion from CD34+ cells cultured with compound, Day 35; assay type: cell-based, human; settings: for supported NK expansion: compound 10 μM during the first 14 days of the culture; for expansion compared to SR1 at Day 35: compound 10 μM, SR1 10 μM positive control
From the text: UCB CD34+ cells were cultivated in presence of cytokines including thrombopoietin, SCF, Flt3 ligand, IL-7, IL-15 and IL-2 for 35 days to produce three-stage NK cells, as described in Example 1. Multi-color flow cytometry was used to determine the phenotypic characteristics of three-stage NK cells.
(§1) For biological testing, the compounds were provided to culture to evaluate their effects on NK cell expansion and differentiation. Specifically, donors of CD34+ cells (StemCell Technology) were thawed and expanded in vitro following NK culture protocol. During the first 14 days of the culture, each CRL compounds was dissolved in DMSO and added to the culture at 10 μM concentration. SR1 (at 10 μM) served as a positive control compound, while DMSO alone without any compound served as a negative control. At the end of the culture on Day 35, cell expansion, natural killer (NK) cell differentiation and cytotoxicity of the cells against K562 tumor cell line were characterized. Due to the large number of the compounds, the testing was performed in two experiments, CRL1-11 and CRL 12-22. The same donors were used for each experiment. Positive and negative controls were also included in both experiments.

[2] = test system: K562 tumor cells; test: Cytotoxicity assay of compound cultured cells against K562 tumor cells; assay type: cell-based; settings: 10:1 effector to target ratio; both donors
Description: as §1
Cytotoxicity assay was run using compound cultured cells against K562 tumor cells at 10:1 effector to target ratio (FIG. 5) to evaluate cell functions.

Structure (SMILES) | supported NK expansion [1] | killing activities compared to cells cultured with SR1 [2] | expansion compared to SR1 at Day 35 [1]
N#Cc1cncc(-c2nc(NCCc3c[nH]c4ccccc34)c3occc3n2)c1 [CRL22, 5-(4-((2-(1H-indol-3-yl)ethyl)amino)furo[3,2-d]pyrimidin-2-yl)nicotinonitrile] | supported cell expansion the best |  | 
CC(C)c1csc2c(NCCc3c[nH]c4ccccc34)nc(-c3cncc(F)c3)nc12 [CRL18, N-(2-(1H-indol-3-yl)ethyl)-2-(5-fluoropyridin-3-yl)-7-isopropylthieno[3,2-d]pyrimidin-4-amine] |  | increased killing activities of the cells | slightly less expansion compared to SR1
CCC(C)Nc1cc(-c2cncc(C#N)c2)nc(NCCc2c[nH]c3ccccc23)n1 (centres unmarked) [CRL7, 5-(2-((2-(1H-indol-3-yl)ethyl)amino)-6-(sec-butylamino)pyrimidin-4-yl)nicotinonitrile] | all the compounds except CRL7 and CRL13 supported PNK-007 expansion and differentiation |  | 
Cc1cncc(-c2nc(NCCc3c[nH]c4ccccc34)c3occc3n2)c1 [CRL20, N-(2-(1H-indol-3-yl)ethyl)-2-(5-methylpyridin-3-yl)furo[3,2-d]pyrimidin-4-amine] | supported cell expansion the best |  | 
CCC(C)Nc1nc(NCCc2c[nH]c3ccccc23)c2ccccc2n1 (centres unmarked) [CRL13, N^4-(2-(H-indol-3-yl)ethyl)-N^2-(sec-butyl)quinazoline-2,4-diamine] | all the compounds except CRL7 and CRL13 supported PNK-007 expansion and differentiation |  | 
Cc1cncc(-c2nc(NCCc3c[nH]c4ccccc34)c3scc(C(C)C)c3n2)c1 [CRL21, N-(2-(1H-indol-3-yl)ethyl)-7-isopropyl-2-(5-methylpyridin-3-yl)thieno[3,2-d]pyrimidin-4-amine] |  | increased killing activities of the cells | slightly less expansion compared to SR1
CC(C)c1csc2c(NCCc3c[nH]c4ccccc34)nc(-c3cncc(C#N)c3)nc12 [CRL17, 5-(4-((2-(1H-indol-3-yl)ethyl)amino)-7-isopropylthieno[3,2-d]pyrimidin-2-yl)nicotinonitrile] |  | increased killing activities of the cells | slightly less expansion compared to SR1
Fc1cncc(-c2nc(NCCc3c[nH]c4ccccc34)c3occc3n2)c1 [CRL19, N-(2-(1H-indol-3-yl)ethyl)-2-(5-fluoropyridin-3-yl)furo[3,2-d]pyrimidin-4-amine] | supported cell expansion the best |  | 
